The values that follow come from US9556207B2, “Pyrazole compounds, compositions and methods for treatment of degenerative diseases and disorders” (MUSC FOUNDATION FOR RESEARCH DEVELOPMENT, priority 2013, dated 2017).

Molecules are shown by their SMILES.

The test system of assay [1] is 661W or C6 cells. Put plainly: MTT assay (protection against calcium-ionophore A23187). It is filed as cell-based. Conditions: for percent protection against ionophore-induced loss of MTT signal at 0.0008 µM: 800 pM compound; for percent protection against ionophore-induced loss of MTT signal at 0.001 µM: 1 nM compound; for percent protection against ionophore-induced loss of MTT signal at 0.01 µM: 10 nM compound. The method, then: The compound 3-(4,5-Dimethylthiazol-2-yl)-2,5-diphenyltetrazolium bromide (MTT) is a tetrazolium ion that is reduced to a blue formazan dye via several families of NAD(P)H-dependent oxidoreductases. Formation of the formazan dye from MTT or other related tetrazolium dyes are commonly used as a viability assay even though, in fact, the assay is a metabolic capacity assay.
In this assay, 661W or C6 cells were maintained in DMEM supplemented with 10% FBS. 100 μL of 70,000 cells/mL cells were seeded into each well of 96 well plates using DMEM supplemented with 5% FBS. Cells were then allowed to grow to confluency for 48 hours. The compounds of the invention were added in 2 μL media and calcium-ionophore A23187 was then added in 1 μL for a final concentration of 1 μM and after 24 h, 20 uL of 2 μg/mL MTT were added to each well and the cells were incubated for another 4 h after which 100 μL of 1% SDS in 0.01 M aqueous HCl were added to each well and the plates were incubated overnight. Absorbance was measured at […] (background correction). The 1 μM ionophore A23187 caused about 50% loss in MTT signal at 24 h. Protection was calculated as the increase in absorbance of treatment groups normalized to the vehicle control.

Assay [2] has as its system 661W or C6 cells. The assay is described as follows: XF FCCP-uncoupled oxygen consumption rate assay (IBMX challenge). It is filed as cell-based. The note with it: 24 h; for activity at 0.1 µM: 100 nM compound; for activity at 0.01 µM: 10 nM compound. As to the method: XF FCCP-Uncoupled Oxygen Consumption Rate Assay
The XF FCCP-uncoupled oxygen consumption rate assay assesses mitochondrial capacity by measuring cellular respiration. It was shown that the maximum FCCP-uncoupled oxygen consumption rate (OCR) was a good estimate of maximal mitochondrial capacity (Beeson 2010) and that IBMX treatment of 661W or C6 cells for 24 h caused a loss in maximal uncoupled OCR (Perron 2013). Thus, cells were pretreated with the exemplified compounds for 1 h, added 600 μM IBMX and then measured the uncoupled rate after 24 h. The OCR measurements were performed using a Seahorse Bioscience XF instrument (Seahorse Bioscience, Billerica, Md.), as previously published (Perron 2013). O2 leakage through the plastic sides and bottom of the plate was accounted for using the AKOS algorithm in the XF software package. Cells were plated on 96- or 24-well custom plates designed for use in the XF and grown to confluency in DMEM+5% FBS (48 h). The medium was then replaced with DMEM+1% FBS for 24 h, along with any treatments.

In assay [3] the test system is rd1 mouse retinal explants (photoreceptors). The assay is described as follows: Retinal degeneration assay (rd1 mouse retina organ cultures). It is filed as cell-based. The note with it: explants cultured 11 days, rows of photoreceptors in ONL. An excerpt:
Retinal Degeneration Assay
It was reasoned that the compounds' activities would enable them to protect against loss of photoreceptors in retinal degenerative animal models. As a translational bridge between the cell line-based assays and in vivo animal studies, mouse retina organ cultures were utilized. These retinal explants were a powerful ex vivo screening tool, which allowed the testing of photoreceptor cell survival within the retinal network, and the effects of a specific compound were tested like in an in vitro system, without systemic interference. In this assay, the rd1 mouse was utilized. The genotype of the rd1 mouse has a mutation in the β-subunit of the phosphodiesterase gene. […] The genetic deficit and the retinal pathology were very similar to that observed in the patients with βPDE-dependent RP. In these mice, rod photoreceptor degeneration started after postnatal day 10 (P10), progressing rapidly, such that at P21, only 1-2 rows of photoreceptor remained, mainly representing cones. Finally, the rd1 mouse retina was amenable to culturing, replicating both retinal development and degeneration, following the same time course as in vivo. […] At the end of the experiments, tissues were fixed, sectioned and stained with 0.1% toluidine and the numbers of rows of photoreceptors remaining in the outer nuclear layer (ONL) were counted.

The test system of assay [4] is Balb/c mice photoreceptors. Put plainly: Light model assay (constant light damage, eyedrops). Conditions: 125 μM eyedrops once per day; continuous light 7 days; assessed 10 days after onset. It is filed as in vivo, mouse. An excerpt: The light model assay is generally accepted as a model of age related macular degeneration (AMD). […] In particular, oxidative damage has been detected by immunohistochemistry, detecting the presence of oxidized and tyrosine-phosphorylated proteins as well as the upregulation of endogenous antioxidants such as thioredoxin and glutathione peroxidase. […] Additional indirect evidence for the involvement of oxidative stress in photoreceptor degeneration has been provided by treatment of photodamaged retinas with antioxidants such as dimethylthiourea, or the treatment of N-methyl-N-nitrosourea (MNU)-challenged rats with the antioxidant DHA.
The light model assay was used to further test the therapeutic potential of the compounds of the invention. Photoreceptors from albino animals are very sensitive to constant light, lacking the RPE pigment to protect them. Thus, Balb/c mice were exposed to continuous light for 7 days, which caused loss of about 50% of the photoreceptor cells as measured via histology. To test the potential therapeutic efficacy, eyedrops were formulated in 0.1% Bij 35 in […], applied once or twice daily throughout the period of light exposure, and assessed their effect on the light-induced degeneration of photoreceptor cells morphologically and electrophysiologically, 10 days after the onset of the CL exposure.

The mark [5] stands for this setting: 1 μM A23187, 24 h, read-out: MTT Protection(%, concentration).
Setting [6] is: 1 h pretreatment, 600 μM IBMX, read-out: XF FCCP OCR (% Ctrl, concentration).

On to `CCOC(=O)c1cc(-c2ccccn2)nn1CC(=O)c1ccc(OC)cc1OC` [Example 1, Ethyl 1-(2-(2,4-dimethoxyphenyl)-2-oxoethyl)-3-(pyridin-2-yl)-1H-pyrazole-5-carboxylate], for which the percent protection against ionophore-induced loss of MTT signal at 0.0008 µM in assay [1] (setting [5]) amounted to 10.4%. Moreover, the activity at 1 µM in assay [2] (1 uM compound, 1 h pretreatment, 600 μM IBMX, read-out: XF FCCP OCR (% Ctrl, concentration)) turned out to be 58%. For the molecule `CCOC(=O)c1cc(-c2ccccn2)n(CC(=O)c2ccc(OC)cc2OC)n1` [Example 2, Ethyl 1-(2-(2,4-dimethoxyphenyl)-2-oxoethyl)-5-(pyridin-2-yl)-1H-pyrazole-3-carboxylate], the percent protection against ionophore-induced loss of MTT signal at 0.0008 µM in assay [1] (setting [5]) turned out to be 73.9%. The “rd1 protection (concentration, # of rows)” value in assay [3] (20 nM) is reported as 20 nM 4.46 # of rows. In addition, the activity at 0.1 µM in assay [2] (setting [6]) was found to be 62%.

Consider `CCOC(=O)c1cc(-c2cccnc2)nn1CC(=O)c1cc(OC)ccc1OC` [Example 3, Ethyl 1-(2-(2,5-dimethoxyphenyl)-2-oxoethyl)-3-(pyridin-3-yl)-1H-pyrazole-5-carboxylate], for which the percent protection against ionophore-induced loss of MTT signal at 0.001 µM in assay [1] (setting [5]) amounted to 43.5%.

`CCOC(=O)c1cc([Si](C)(C)C)nn1CC(=O)c1ccc(OC)cc1OC` [Example 4, Ethyl 1-(2-(2,4-dimethoxyphenyl)-2-oxoethyl)-3-(trimethylsilyl)-1H-pyrazole-5-carboxylate]: in assay [1] (setting [5]), the percent protection against ionophore-induced loss of MTT signal at 0.01 µM was found to be 87%. Also, the “LD Protection (concentration, # of rows)” value in assay [4] is reported as 125 μM 6.42 # of rows. Also, in assay [3] (10 nM), the “rd1 protection (concentration, # of rows)” value is listed as 10 nM 3.2 # of rows. Further, the activity at 0.01 µM in assay [2] (setting [6]) was 67%. On to `CCOC(=O)c1cc([Si](C)(C)C)nn1CC(=O)c1cc(OC)ccc1OC` [Example 5, Ethyl 1-(2-(2,5-dimethoxyphenyl)-2-oxoethyl)-3-(trimethylsilyl)-1H-pyrazole-5-carboxylate], for which, in assay [1] (setting [5]), the percent protection against ionophore-induced loss of MTT signal at 0.01 µM was determined as 76.6%. The activity at 0.01 µM in assay [2] (setting [6]) came out at 72%. The corresponding values for `CCOC(=O)c1cc(-c2ccccn2)nn1Cc1cccnc1` [Example 6, Ethyl 3-(pyridin-2-yl)-1-(pyridin-3-ylmethyl)-1H-pyrazole-5-carboxylate] are 73.5% and 75%. Consider `CCOC(=O)c1cc([Si](C)(C)C)nn1Cc1cc(OC)c(OC)c(OC)c1` [Example 7, Ethyl 1-(3,4,5-trimethoxybenzyl)-3-(trimethylsilyl)-1H-pyrazole-5-carboxylate], for which the percent protection against ionophore-induced loss of MTT signal at 0.01 µM in assay [1] (setting [5]) turned out to be 40%. As for `CCOC(=O)c1cc(-c2cccnc2)nn1CC(=O)c1ccc(OC)cc1OC` [Example 8, Ethyl 1-(2-(2,4-dimethoxyphenyl)-2-oxoethyl)-3-(pyridin-3-yl)-1H-pyrazole-5-carboxylate], the percent protection against ionophore-induced loss of MTT signal at 0.001 µM in assay [1] (setting [5]) came to 75.6%. Also, the activity at 0.1 µM in assay [2] (setting [6]) is 64%. The matching figures for `CCOC(=O)c1cc([Si](C)(C)C)n(CC(=O)c2cccnc2)n1` [Example 9, Ethyl 1-(2-oxo-2-(pyridin-3-yl)ethyl)-5-(trimethylsilyl)-1H-pyrazole-3-carboxylate]: 59% and 67%. With `CCOC(=O)c1cc([Si](C)(C)C)nn1CC(=O)c1cccnc1` [Example 10, Ethyl 1-(2-oxo-2-(pyridin-3-yl)ethyl)-3-(trimethylsilyl)-1H-pyrazole-5-carboxylate], in assay [1] (setting [5]), the percent protection against ionophore-induced loss of MTT signal at 0.001 µM was determined as 47.8%. Turning to `CCOC(=O)c1cc(-c2ccccn2)nn1CC(=O)c1cc(OC)ccc1OC` [Example 11, Ethyl 1-(2-(2,5-dimethoxyphenyl)-2-oxoethyl)-3-(pyridin-2-yl)-1H-pyrazole-5-carboxylate], the percent protection against ionophore-induced loss of MTT signal at 1 µM in assay [1] (1 μM compound, 1 μM A23187, 24 h, read-out: MTT Protection(%, concentration)) was found to be 28.3%. As for `CCOC(=O)c1cc(C(C)C)nn1Cc1c[nH]c2ccccc12` [Example 12, Ethyl 1-((1H-indol-3-yl)methyl)-3-isopropyl-1H-pyrazole-5-carboxylate], in assay [1] (setting [5]), the percent protection against ionophore-induced loss of MTT signal at 0.001 µM came out at 59.4%. In the case of `CNc1ccc2oc(C[C@H]3O[C@@]4(CC[C@H]3C)O[C@H]([C@H](C)C(=O)c3ccc[nH]3)[C@H](C)C[C@H]4C)nc2c1C(=O)O` [Example A23187, reference compound], the “loss in MTT signal” value in assay [1] (1 μM ionophore alone, 24 h) is “about 50%”.

On to `CC(C)Cn1c(=O)n(C)c(=O)c2[nH]cnc21` [IBMX, reference compound], for which, in assay [2] (IBMX treatment alone, 600 μM), the “decrease in the uncoupled rate (OCR)” value was ~50%.
